Reference: PubChem BioAssay AID248 (DTP/NCI, 2004)
Toxic doses and inconclusive results are not listed. Rule as the data show it: active = T/C of 150% or more; inactive = T/C below 125%.

System: L1210 leukemia ip in BDF1 mice, survival T/C
Assay: NCI In Vivo Anticancer Drug Screen. Data for tumor model L1210 Leukemia (intraperitoneal) in B6D2F1 (BDF1) mice
Conditions: endpoint: mean survival time, higher = longer survival
Summary of the method: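 Value reflects the ratio of survival in compound-treated mice to survival in vehicle-treated controls, with both groups carrying the same transplanted tumor.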

[1] = dose: 100.0 mg/kg/injection, schedule: Q01DX001 (ip), vehicle: saline with Tween-80
[2] = dose: 100.0 mg/kg/injection, schedule: Q01DX009 (ip), vehicle: Klucel (hydroxypropylcellulose) (HPC)
[3] = dose: 200.0 mg/kg/injection, schedule: Q01DX009 (ip), vehicle: Klucel (hydroxypropylcellulose) (HPC)
[4] = dose: 400.0 mg/kg/injection, schedule: Q01DX009 (ip), vehicle: Klucel (hydroxypropylcellulose) (HPC)
[5] = dose: 100.0 mg/kg/injection, schedule: Q04DX003 (ip), vehicle: Klucel (hydroxypropylcellulose) (HPC)
[6] = dose: 200.0 mg/kg/injection, schedule: Q04DX003 (ip), vehicle: Klucel (hydroxypropylcellulose) (HPC)
[7] = dose: 400.0 mg/kg/injection, schedule: Q04DX003 (ip), vehicle: Klucel (hydroxypropylcellulose) (HPC)

Measured: T/C

CC1=CP(=O)(c2ccccc2)CC1 (configuration not stated)
inactive: dose: 100.0 mg/kg/injection, schedule: Q01DX001 (ip), vehicle: saline 102 % of control | dose: 200.0 mg/kg/injection, schedule: Q01DX001 (ip), vehicle: saline 102 % of control | dose: 400.0 mg/kg/injection, schedule: Q01DX001 (ip), vehicle: saline 105 % of control

Nc1nc(=O)n(CCCOc2ccc([N+](=O)[O-])c(Cl)c2)cc1-c1ccc(Cl)c(Cl)c1
inactive: dose: 25.0 mg/kg/injection, schedule: Q01DX001 (ip), vehicle: saline with Tween-80 95 % of control | dose: 50.0 mg/kg/injection, schedule: Q01DX001 (ip), vehicle: saline with Tween-80 96 % of control | [1] 88 % of control

Cc1ccc(NC(=S)Nc2ccccc2)c(C)c1
inactive: dose: 100.0 mg/kg/injection, schedule: Q01DX001 (ip), vehicle: other 89 % of control | [2] 102 % of control | dose: 100.0 mg/kg/injection, schedule: Q04DX002 (ip), vehicle: Klucel (hydroxypropylcellulose) (HPC) 87 % of control | dose: 200.0 mg/kg/injection, schedule: Q01DX001 (ip), vehicle: other 94 % of control | [3] 97 % of control | dose: 200.0 mg/kg/injection, schedule: Q04DX002 (ip), vehicle: Klucel (hydroxypropylcellulose) (HPC) 90 % of control | dose: 400.0 mg/kg/injection, schedule: Q01DX001 (ip), vehicle: other 97 % of control | [4] 94 % of control | dose: 400.0 mg/kg/injection, schedule: Q04DX002 (ip), vehicle: Klucel (hydroxypropylcellulose) (HPC) 106 % of control

CCOCCCSP(SCCCOCC)SCCCOCC
inactive: dose: 100.0 mg/kg/injection, schedule: Q01DX009 (ip), vehicle: saline 101 % of control | dose: 200.0 mg/kg/injection, schedule: Q01DX009 (ip), vehicle: saline 102 % of control | dose: 400.0 mg/kg/injection, schedule: Q01DX009 (ip), vehicle: saline 104 % of control

CN(C)C=NCCNc1ccc([N+](=O)[O-])cn1
inactive: dose: 50.0 mg/kg/injection, schedule: Q01DX009 (ip), vehicle: saline with Tween-80 100 % of control | [1] 98 % of control | dose: 100.0 mg/kg/injection, schedule: Q01DX009 (ip), vehicle: saline with Tween-80 100 % of control | dose: 200.0 mg/kg/injection, schedule: Q01DX001 (ip), vehicle: saline with Tween-80 95 % of control

Cc1cc(Cl)ccc1NC(C)(C)C
inactive: dose: 75.0 mg/kg/injection, schedule: Q04DX002 (ip), vehicle: Klucel (hydroxypropylcellulose) (HPC) 104 % of control | dose: 150.0 mg/kg/injection, schedule: Q04DX002 (ip), vehicle: Klucel (hydroxypropylcellulose) (HPC) 108 % of control | dose: 300.0 mg/kg/injection, schedule: Q04DX002 (ip), vehicle: Klucel (hydroxypropylcellulose) (HPC) 104 % of control

CCN(CC)CC(=O)NCC(CCCN(C)C)(CCCN(C)C)c1cccc2ccccc12
inactive: dose: 12.5 mg/kg/injection, schedule: Q01DX009 (ip), vehicle: saline 96 % of control | dose: 25.0 mg/kg/injection, schedule: Q01DX009 (ip), vehicle: saline 91 % of control | dose: 25.0 mg/kg/injection, schedule: Q04DX002 (ip), vehicle: saline 93 % of control | dose: 50.0 mg/kg/injection, schedule: Q01DX009 (ip), vehicle: saline 86 % of control | dose: 50.0 mg/kg/injection, schedule: Q04DX002 (ip), vehicle: saline 100 % of control

COc1ccc(OC)c(NC(=O)Nc2c(C)n(C)n(-c3ccccc3)c2=O)c1
inactive: [2] 93 % of control | [5] 98 % of control | [3] 93 % of control | [6] 93 % of control | [4] 101 % of control | [7] 90 % of control

CCCCCCCCCCCCCCCCCCN1C(=O)C2C(C1=O)C1(Cl)C(Cl)=C(Cl)C2(Cl)C1(Cl)Cl (configuration not stated)
inactive: dose: 100.0 mg/kg/injection, schedule: Q04DX003 (ip), vehicle: saline with Tween-80 96 % of control | dose: 200.0 mg/kg/injection, schedule: Q04DX003 (ip), vehicle: saline with Tween-80 93 % of control

NC(CC(=O)NCCc1ccccc1)C(=O)NCCc1ccccc1 (configuration not stated)
inactive: dose: 75.0 mg/kg/injection, schedule: Q01DX001 (ip), vehicle: other 102 % of control | dose: 150.0 mg/kg/injection, schedule: Q01DX001 (ip), vehicle: other 97 % of control | dose: 300.0 mg/kg/injection, schedule: Q01DX001 (ip), vehicle: other 97 % of control

S=C(N/N=C/c1ccccn1)NC1CC2C=CC1C2 (configuration not stated)
inactive: [2] 100 % of control | [3] 95 % of control

O=[N+]([O-])c1cc2c(c([N+](=O)[O-])c1)Nc1cc(Cl)ccc1O2
inactive: [2] 95 % of control | [3] 96 % of control | [4] 96 % of control

CCCC(=O)C(C)C(=O)C(F)(F)F.CCCC(=O)C(C)C(=O)C(F)(F)F.CCCC(=O)C(C)C(=O)C(F)(F)F.[Er] (configuration not stated)
inactive: [2] 116 % of control | [5] 98 % of control | [3] 102 % of control | [6] 94 % of control | [4] 113 % of control | [7] 94 % of control
